Experimental data from patent US10953012B2, “Heterocyclic compounds for the inhibition of pask” (BioEnergenix LLC, priority 2011, dated 2021).

Each molecule was assayed against PASK (Homo sapiens (Human), UniProt Q96RG2) (assay: PAS Kinase FRET Assay). Conditions: TR-FRET assay; read-out: IC50 Kinase Domain.
Type: biochemical
Excerpt: The aim of the FRET assay is to determine the inhibition potential of test compounds on targeted kinase. This assay platform provides a homogenous screening method for measuring kinase activity by quantitating the amount of phospho-substrate in solution following a kinase reaction.
In the presence of kinase and ATP, the Ulight-peptide is phosphorylated and captured by an anti-phospho-substrate antibody, which brings the Eu chelate donor and Ulight acceptor dyes into close proximity. Upon excitation at 340 nm, the Eu chelate transfers its energy to the Ulight dye, resulting in a fluorescent light emission at 665 nm
Titration of kinase at 1 mM ATP was achieved via the following protocol. After making serial three-fold dilutions of PASK (Invitrogen) in reaction buffer across the plate; 5 μl of kinase dilution and 5 μl substrate/ATP mix were added to the wells of the white Optiplate-384 (PerkinElmer). The contents of the plate were and incubated at RT for 1 h. The reaction was stopped by adding 5 μl of stop solution to each test well followed by mixing and incubation at RT for 10 minutes. 5 μl of detection mix (detection antibody diluted in detection buffer) was added; the contents of the plate were mixed and then incubated in the dark for 1 hour at RT. The signal was recorded at TR-FRET mode (665 nm/615 nm). The results were graphed to calculate the EC50.
Titration of ATP at the EC50 concentration of kinase to determine ATP Km, app. was performed using the following method. After making serial dilutions of ATP (Invitrogen), 5 μl of ATP dilution and 5 μl substrate/kinase mix were added to the wells of the white Optiplate-384 (PerkinElmer). The contents of the plate were and incubated at RT for 1 h. The reaction was stopped by adding 5 μl of stop solution to each test well followed by mixing and incubation at RT for 10 minutes. 5 μl of detection mix (detection antibody diluted in detection buffer) was added; the contents of the plate were mixed and then incubated in the dark for 1 hour at RT. The signal was recorded at TR-FRET mode (665 nm/615 nm). The results were graphed to calculate the EC50 as the ATP Km, app.
Compound screening was done via the following method. 10 mM stock solution of test compound in DMSO was prepared by dissolving test compound in DMSO at RT for 1 hour, and then sonicating at 100% output for 8 minutes. If compound is not soluble under this condition, it was diluted to 3 mM. Kinase reaction buffer was prepared containing 10 mM MgCl2, 50 mM HEPES, 1 mM EGTA, 0.01% TWEEN-20, 2 mM DTT. Serial dilutions of the test compounds were prepared at 4×final assay concentrations using Freedom EVO200® dispensing system as follows: 12×10^−5 M, 4×10^−5 M, 1.33×10^−5 M, 4.44×10^−6 M, 1.48×10^−6 M, 4.92×10^−7 M, 1.65×10^−7 M, […], 1.82×10^−8M, 6.09×10^−9, 2.03×10^−9 M. Test compounds (2.5 μl at 4× the final assay concentration) was added to wells using Freedom EVO200® dispensing system. As a positive control, 2.5 μl of positive compound was added to assay wells, and 2.5 μl of DMSO to assay wells as vehicle control. Kinase solution was prepared in reaction buffer at 2×final assay concentration. Kinase solution (5 μl) was added to each well of the assay plate. The substrate and ATP solution was prepared in kinase reaction buffer at 4×final assay concentration. The kinase reaction was started by adding 2.5 μl of substrate+ATP mix solution to each well of the assay plate. The plate is mixed on a plate shaker; then covered and allowed to react for 2 hours in the dark at 25° C. without shaking. The reaction was stopped by adding 5 μl of stop solution to each test well followed by mixing and incubation at RT for 10 minutes in the dark. 5 μl of detection mix (detection antibody diluted in detection buffer) was added; the contents of the plate were mixed and then incubated in the dark for 1 hour at RT. The signal was recorded at TR-FRET mode (665 nm/615 nm).

PASK, sequence (Q96RG2 999-1251): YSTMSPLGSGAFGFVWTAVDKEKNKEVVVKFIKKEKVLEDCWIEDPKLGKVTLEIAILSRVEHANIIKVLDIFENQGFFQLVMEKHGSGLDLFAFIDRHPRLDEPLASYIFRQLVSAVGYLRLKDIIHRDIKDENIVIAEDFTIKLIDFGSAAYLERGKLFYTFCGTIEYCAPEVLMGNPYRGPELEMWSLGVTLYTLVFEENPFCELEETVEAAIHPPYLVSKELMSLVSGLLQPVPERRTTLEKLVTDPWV

| Structure (SMILES) | IC50 [µM] |
| --- | --- |
| Cc1nn2c(=O)cc(-c3ccc(O)cc3)[nH]c2c1-c1ccccc1 [Example 80, 5-(4-Hydroxyphenyl)-2-methyl-3-phenylpyrazolo[1,5-a]pyrimidin-7(4H)-one] | ≤ 10 |
| COc1ccc(-c2cnn3c(=O)cc(-c4ccc5c(c4)OCCO5)[nH]c23)cc1 [Example 82, 5-(2,3-Dihydrobenzo[b][1,4]dioxin-6-yl)-3-(4-methoxyphenyl)pyrazolo[1,5-a]pyrimidin-7(4H)-one] | ≤ 10 |
| Cc1nn2c(=O)cc(-c3ccc4ncccc4c3)[nH]c2c1-c1ccc(F)cc1 [Example 83, 3-(4-Fluorophenyl)-2-methyl-5-(quinolin-6-yl)pyrazolo[1,5-a]pyrimidin-7(4H)-one] | ≤ 10 |
| COc1ccc(-c2c(C)nn3c(=O)cc(-c4ccc5ncccc5c4)[nH]c23)cc1 [Example 84, 3-(4-Methoxyphenyl)-2-methyl-5-(quinolin-6-yl)pyrazolo[1,5-a]pyrimidin-7(4H)-one] | ≤ 10 |
| COc1ccc(-c2c(C)nn3c(=O)cc(-c4ccc5c(c4)OCCO5)[nH]c23)cc1 [Example 85, 5-(2,3-Dihydrobenzo[b][1,4]dioxin-6-yl)-3-(4-methoxyphenyl)-2-methylpyrazolo[1,5-a]pyrimidin-7(4H)-one] | ≤ 10 |
| O=c1cc(-c2ccc3c(c2)OCCO3)[nH]c2c(-c3ccc(F)cc3)cnn12 [Example 86, 5-(2,3-Dihydrobenzo[b][1,4]dioxin-6-yl)-3-(4-fluorophenyl)pyrazolo[1,5-a]pyrimidin-7(4H)-one] | ≤ 10 |
| Cc1nn2c(=O)cc(-c3ccc4[nH]ccc4c3)[nH]c2c1-c1ccccc1 [Example 87, 5-(1H-Indol-5-yl)-2-methyl-3-phenylpyrazolo[1,5-a]pyrimidin-7(4H)-one] | ≤ 10 |
| O=c1cc(-c2ccccc2)[nH]c2c(-c3ccc(N4CCCCC4)nc3)cnn12 [Example 88, 5-Phenyl-3-(6-(piperidin-1-yl)pyridin-3-yl)pyrazolo[1,5-a]pyrimidin-7(4H)-one] | ≥ 10 |
| O=c1cc(-c2ccc3c(c2)OCCO3)[nH]c2c(-c3cccc(Cl)c3)cnn12 [Example 90, 3-(3-Chlorophenyl)-5-(2,3-dihydrobenzo[b][1,4]dioxin-6-yl)pyrazolo[1,5-a]pyrimidin-7(4H)-one] | ≤ 10 |
| O=c1cc(-c2ccc3c(c2)OCCO3)[nH]c2c(-c3ccc(Br)cc3)cnn12 [Example 104, 3-(4-Bromophenyl)-5-(2,3-dihydrobenzo[b][1,4]dioxin-6-yl)pyrazolo[1,5-a]pyrimidin-7(4H)-one] | ≤ 10 |
| O=c1cc(-c2ccccc2)[nH]c2c(-c3ccc(O)nc3)cnn12 [Example 105, 3-(6-Hydroxypyridin-3-yl)-5-phenylpyrazolo[1,5-a]pyrimidin-7(4H)-one] | ≤ 10 |
| COc1ccc(-c2cnn3c(=O)cc(-c4ccccc4)[nH]c23)cn1 [Example 112, 3-(6-Methoxypyridin-3-yl)-5-phenylpyrazolo[1,5-a]pyrimidin-7(4H)-one] | ≤ 10 |
| O=C(O)c1cnn2c(=O)cc(-c3ccc4c(c3)OCCO4)[nH]c12 [Example 115, 5-(2,3-Dihydrobenzo[b][1,4]dioxin-6-yl)-7-oxo-4,7-dihydropyrazolo[1,5-a]pyrimidine-3-carboxylic acid] | ≤ 10 |
| O=c1cc(-c2ccc3c(c2)OCCO3)[nH]c2c(-c3ccc(N4CCOCC4)nc3)cnn12 [Example 118, 5-(2,3-Dihydrobenzo[b][1,4]dioxin-6-yl)-3-(6-morpholinopyridin-3-yl)pyrazolo[1,5-a]pyrimidin-7(4H)-one] | ≤ 10 |
| O=c1cc(-c2ccc(Cl)cc2Cl)[nH]c2c(-c3ccccn3)cnn12 [Example 124, 5-(2,4-Dichlorophenyl)-3-(pyridin-2-yl)pyrazolo[1,5-a]pyrimidin-7(4H)-one] | ≤ 10 |
| O=c1cc(-c2ccc(Cl)cc2)[nH]c2c(Cc3ccccc3)cnn12 [Example 132, 3-benzyl-5-(4-chlorophenyl)pyrazolo[1,5-a]pyrimidin-7(411)-one] | ≤ 10 |
